Data reported in patent publication US20190352276A1, “INHIBITORS OF BRUTON'S TYROSINE KINASE” (Joint Stock Company "Biocad", priority 2016, published 2019).
Where two headings read alike, the source gives them in different places.

Legend:
[1] = target: T1, recombinant Btk kinase enzyme (Homo sapiens, UniProt Q06187); test: In vitro inhibition of Btk kinase activity (ADP-Glo); format: biochemical; settings: read-out: IC50 kinase BTK
T1 construct: purchased SignalChem B10-10H
How it was run: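 IC50 obtained by four-parameter logistic fitting of ADP-Glo luminescence, which reports ADP generated by the kinase. Reaction: recombinant Btk enzyme, 50 μM ATP, 0.5 mg/mL Poly(4:1 Glu,Tyr) peptide, incubated 180 minutes at 37° C. with test compound.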

[2] = target: T2, ITK (Homo sapiens, UniProt Q08881); test: In vitro kinase panel: ITK; format: biochemical; settings: Table 9 kinase panel
T2 construct: purchased SignalChem I13-10G
T2 sequence (Q08881 1-620): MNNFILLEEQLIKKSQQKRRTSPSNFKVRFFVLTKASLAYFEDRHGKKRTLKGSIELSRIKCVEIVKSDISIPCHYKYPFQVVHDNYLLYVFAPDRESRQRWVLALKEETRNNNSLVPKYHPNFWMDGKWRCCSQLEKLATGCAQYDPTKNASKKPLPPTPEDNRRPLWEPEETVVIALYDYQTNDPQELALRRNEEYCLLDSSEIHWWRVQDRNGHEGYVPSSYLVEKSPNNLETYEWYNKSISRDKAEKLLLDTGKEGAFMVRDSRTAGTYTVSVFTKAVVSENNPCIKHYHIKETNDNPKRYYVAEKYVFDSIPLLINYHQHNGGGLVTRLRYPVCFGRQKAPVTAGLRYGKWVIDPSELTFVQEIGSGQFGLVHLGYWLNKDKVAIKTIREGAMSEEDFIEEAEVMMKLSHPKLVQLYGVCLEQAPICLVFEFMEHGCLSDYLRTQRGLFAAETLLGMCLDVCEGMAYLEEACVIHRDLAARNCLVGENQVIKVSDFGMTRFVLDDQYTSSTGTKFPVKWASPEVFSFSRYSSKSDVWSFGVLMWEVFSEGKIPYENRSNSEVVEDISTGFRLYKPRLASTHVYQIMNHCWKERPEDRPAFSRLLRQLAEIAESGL
Method: (§1) The measurements were carried out in a 25 μL reaction volume using a 96-well plate (Corning, #3642). The kinase enzyme and inhibitor were pre-incubated for 10 minutes in the reaction buffer containing 25 mM of MOPS (pH 7.2), 12.5 mM of 0-glycerophosphate, 27 mM of MgCl2, 2 mM of MnCl2, 5 mM of EGTA, 2 mM of EDTA, 0.3 mM of DTT, and 1.2 mg/mL of bovine serum albumin. Staurosporine (Abcam Biochemicals, ab146588) was used as a reference inhibitor and 0.1% DMSO in the reaction buffer—as a negative control. The solution of 0.5 mg/mL peptide substrate and 50 &M ATP in the same buffer were added; the solution was incubated for 180 minutes at 37° C. To detect the amount of ATP taken up during the kinase reaction, the equivalent amount of ADP (from the ADP Glo Detection Kit (Promega, #V9101)) was used according to the protocol. The reaction mixture was equilibrated to room temperature. 25 µL of ADP-Glo Reagent were added into each well; the plate was incubated for 40 minutes. 50 μL of Kinase Detection Reagent were added; the plate was incubated for 30 minutes. The luminescence was measured with multimode plate reader (Tecan Infinite M200Pro, Switzerland). IC50 values were calculated using Magellan 7.2 software (Tecan, Switzerland) approximating experimental points by four-parameter logistic model with the optimization by Levenberg-Marquardt.
(§2) For active compounds selected by screening using the target enzyme BTK, the values of IC50 were determined on a kinase panel: EGFR (SignalChem, #E10-11G), ITK (SignalChem, #I13-10G) and TEC (SignalChem, #T03-10G).

[3] = tested on: Mino (mantle cell lymphoma); test: Antiproliferative activity, Mino cells (Alamar Blue); format: cell-based; settings: Homo sapiens
How it was run: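 Readout: Alamar Blue fluorescence (540 nm excitation, 590 nm emission) after 14-16 h reagent incubation, following 72 h compound exposure at 37 °C. About 3*10^4 cells/well were grown in 10% FBS RPMI-1640. IC50 values were fitted by a four-parameter logistic model.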

[4] = target: T3, EGFR (Homo sapiens, UniProt P00533); test: In vitro kinase panel: EGFR; format: biochemical; settings: Table 9 kinase panel
T3 construct: purchased SignalChem E10-11G
Method: as §1, §2

[5] = Table 10, 72 h, average of several tests

T3 sequence (P00533 672-1210 limits assumed): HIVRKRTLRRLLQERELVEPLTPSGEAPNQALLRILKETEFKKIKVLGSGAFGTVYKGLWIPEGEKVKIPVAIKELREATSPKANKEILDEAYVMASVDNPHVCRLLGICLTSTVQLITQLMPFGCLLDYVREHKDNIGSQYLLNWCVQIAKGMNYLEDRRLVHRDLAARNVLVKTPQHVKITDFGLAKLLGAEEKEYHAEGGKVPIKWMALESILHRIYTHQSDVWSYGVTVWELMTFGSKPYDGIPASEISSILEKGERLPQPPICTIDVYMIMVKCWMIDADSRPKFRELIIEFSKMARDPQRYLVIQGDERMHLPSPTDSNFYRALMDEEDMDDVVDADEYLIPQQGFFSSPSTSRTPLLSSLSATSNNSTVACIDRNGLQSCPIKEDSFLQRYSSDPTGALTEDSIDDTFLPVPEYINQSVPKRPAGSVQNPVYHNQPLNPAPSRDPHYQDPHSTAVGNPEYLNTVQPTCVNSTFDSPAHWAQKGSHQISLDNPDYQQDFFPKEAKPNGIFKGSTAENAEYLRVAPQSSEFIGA
T1 sequence (Q06187 whole entry): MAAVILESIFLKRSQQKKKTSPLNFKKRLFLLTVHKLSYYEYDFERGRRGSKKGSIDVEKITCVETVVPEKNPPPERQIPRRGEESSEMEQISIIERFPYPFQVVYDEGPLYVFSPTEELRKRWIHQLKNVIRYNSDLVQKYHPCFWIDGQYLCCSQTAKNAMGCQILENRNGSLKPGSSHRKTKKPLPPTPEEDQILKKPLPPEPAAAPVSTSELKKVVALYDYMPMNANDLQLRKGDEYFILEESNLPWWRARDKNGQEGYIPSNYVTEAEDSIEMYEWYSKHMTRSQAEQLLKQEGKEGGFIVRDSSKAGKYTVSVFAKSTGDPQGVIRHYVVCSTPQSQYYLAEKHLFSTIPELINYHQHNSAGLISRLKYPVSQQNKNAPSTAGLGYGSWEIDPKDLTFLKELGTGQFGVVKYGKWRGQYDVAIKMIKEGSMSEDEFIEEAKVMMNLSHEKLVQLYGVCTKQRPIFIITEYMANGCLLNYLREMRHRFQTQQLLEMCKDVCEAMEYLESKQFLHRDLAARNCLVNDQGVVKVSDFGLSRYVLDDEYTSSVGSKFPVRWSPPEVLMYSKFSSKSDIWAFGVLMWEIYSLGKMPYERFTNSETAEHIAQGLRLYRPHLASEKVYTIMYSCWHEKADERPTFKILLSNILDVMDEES

| IC50 ([1]; Table 9 kinase panel) [µM] | IC50 [2] [µM] | IC50 ([3]; Table 11, 72 h) [µM] | IC50 [4] [µM] | IC50 ([1]; Table 8, ADP-Glo) [µM] | IC50 [3, 5] [µM] | SMILES |
| --- | --- | --- | --- | --- | --- | --- |
| 0.109 | > 1 | 7.3 | > 1 |  |  | C=CC(=O)N1CCC[C@@H](n2nc(-c3ccc(Oc4ccncc4)cc3)c3cncc(Cl)c32)C1 [BCD-BTK-125, (R)-1-(1-acryloylpiperidin-3-yl)-7-chloro-3-(4-(pyridin-4-yloxy)phenyl)-1H-pyrazolo[4,3-c]pyridine] |
| 0.00085 | 0.2 | 10.2 | 0.0488 |  |  | C=CC(=O)N1CCC[C@@H](n2nc(-c3ccc(Oc4ccncc4)cc3)c3c(N)ncc(Cl)c32)C1 [BCD-BTK-139, (R)-1-(1-acryloylpiperidin-3-yl)-7-chloro-3-(4-(pyridin-4-yloxy)phenyl)-1H-pyrazolo[4,3-c]pyridin-4-amine] |
|  | > 0.3 |  | 0.172 | 0.0191 | 11.9 | C=CC(=O)N1CCC[C@@H](n2nc(-c3ccc(C(=O)Nc4ccccn4)cc3)c3cncc(Cl)c32)C1 [BCD-BTK-201] |
|  | > 0.5 |  | > 0.5 | 0.0746 | 7.79 | C=CC(=O)N1CCC[C@@H](n2nc(-c3ccc(Oc4ccncc4C#N)cc3)c3cncc(Cl)c32)C1 [BCD-BTK-202, (R)-4-(4-(1-(1-acryloylpiperidin-3-yl)-7-chloro-1H-pyrazolo[4,3-c]pyridin-3-yl)phenoxy)nicotinonitrile] |
|  | > 0.3 |  | 0.82 | 0.0535 | 10.5 | C=CC(=O)N1CCC[C@@H](n2nc(-c3ccc(Oc4cccnc4C(N)=O)cc3)c3cncc(Cl)c32)C1 [BCD-BTK-220, 3-(4-{7-chloro-1-[(3R)-1-(prop-2-enoyl)piperidin-3-yl]-1H-pyrazolo[4,3-c]pyridin-3-yl}phenoxy)pyridine-2-carboxamide] |
|  | > 1 |  | > 0.5 | 0.0105 | 9.81 | C=CC(=O)N1CCC[C@@H](n2nc(-c3ccc(Oc4cccnc4C#N)cc3)c3cncc(F)c32)C1 [BCD-BTK-230, (R)-3-(4-(1-(1-acryloylpiperidin-3-yl)-7-fluoro-1H-pyrazolo[4,3-c]pyridin-3-yl)phenoxy)picolinonitrile] |
|  | 0.0254 |  | 0.0018 | 0.00117 | 9.6 | C=CC(=O)N1CCC[C@@H](n2nc(-c3ccc(C(=O)Nc4ccccn4)cc3)c3c(N)ncc(C#N)c32)C1 [BCD-BTK-234, (R)-4-(1-(1-acryloylpiperidin-3-yl)-4-amino-7-cyano-1H-pyrazolo[4,3-c]pyridin-3-yl)-N-(pyridine-2-yl)benzamide] |
|  | 0.0249 |  | 0.0105 | 0.00238 | 14.2 | C=CC(=O)N1CCC[C@@H](n2nc(-c3ccc(Oc4ccncc4)cc3)c3c(N)ncc(OC)c32)C1 [BCD-BTK-239, (R)-1-(1-acryloylpiperidin-3-yl)-4-amine-7-methoxy-3-(4-(pyridin-4-yloxy)phenyl)-1H-pyrazolo[4,3-c]pyridine] |
|  | 0.00778 |  | 0.00241 | 0.00225 | 14.1 | C=CC(=O)N1CCC[C@@H](n2nc(-c3ccc(C(=O)Nc4ccccn4)cc3)c3c(N)ncc(OC)c32)C1 [BCD-BTK-240, (R)-4-(1-(1-acryloylpiperidin-3-yl)-4-amino-7-methoxy-1H-pyrazolo[4,3-c]pyridin-3-yl)-N-(pyridin-2-yl)benzamide] |
|  | 0.011 |  | 0.00132 | 0.00177 | 17.3 | C=CC(=O)N1CCC[C@@H](n2nc(-c3ccc(C(=O)Nc4ccccn4)cc3)c3c(N)nccc32)C1 [BCD-BTK-242, (R)-4-(1-(1-acryloylpiperidin-3-yl)-4-amino-1H-pyrazolo[4,3-c]pyridin-3-yl)-N-(pyridin-2-yl)benzamide] |
|  | 0.0101 |  | 0.00883 | 0.00271 | 3.65 | C=CC(=O)N1CCC[C@@H](n2nc(-c3ccc(C(=O)Nc4cc(C(F)(F)F)ccn4)cc3)c3c(N)ncc(Cl)c32)C1 [BCD-BTK-251, (R)-4-(1-(1-acryloylpiperidin-3-yl)-4-amino-7-chloro-1H-pyrazolo[4,3-c]pyridin-3-yl)-N-(4-(trifluoromethyl)pyridin-2-yl)benzamide] |
|  | > 1 |  | > 0.5 | 0.0146 | 4.46 | C=CC(=O)N1CCC[C@@H](n2nc(-c3ccc(C(=O)Nc4cc(C(F)(F)CCC)ccn4)cc3)c3cncc(Cl)c32)C1 [BCD-BTK-252, (R)-4-(1-(1-acryloylpiperidin-3-yl)-7-chloro-1H-pyrazolo[4,3-c]pyridin-3-yl)-N-(4-(1,1-difluorobutyl)pyridin-2-yl)benzamide] |
|  | 0.0333 |  | 0.0186 | 0.00117 | 17.3 | C=CC(=O)N1CCC[C@@H](n2nc(-c3ccc(C(=O)Nc4ncccc4F)cc3)c3c(N)ncc(C#N)c32)C1 [BCD-BTK-258, 4-{4-amino-7-cyano-1-[(3R)-1-(prop-2-enoyl)piperidin-3-yl]-1H-pyrazolo[4,3-c]pyridin-3-yl}-N-(3-fluoropyridin-2-yl)benzamide] |
|  | 0.0635 |  | > 0.5 | 0.00734 | 3.35 | C=CC(=O)N1CCC[C@@H](n2nc(-c3cnc(C(=O)Nc4cc(C(F)(F)CCC)ccn4)nc3)c3cncc(Cl)c32)C1 [BCD-BTK-292, (R)-5-(1-(1-acryloylpiperidin-3-yl)-7-chloro-1H-pyrazolo[4,3-c]pyridin-3-yl)-N-(4-(1,1-difluorobutyl)pyridin-2-yl)pyrimidine-2-carboxamide] |
